Laboratory results published in US20190298846A1, “CELL TARGETING CONJUGATES” (LinXis B.V., priority 2016, published 2019).
Square brackets hold non-standard residues; d marks the D form. Peptide text beside a SMILES is read from it. * marks the point of attachment. Dolaproine = CO[C@@H]([C@@H]1CCCN1)[C@@H](C)C(=O)O; Dil = CC[C@H](C)[C@H](NC)[C@@H](CC(=O)O)OC; X1 = O=C(CCCCCN1C(=O)C=CC1=O)NCCOCCOCCN*; NMe2Val = CC(C)[C@@H](C(=O)*)N(C)C

Tests used:
all tested cell lines = assay: In vitro cell viability assay, drug-linkers versus ADCs; format: cell-based; conditions: AF-Lx quenched with thiourea, AF-Mal with n-acetyl-cysteine
Experimental: (§1) Before starting the assay, the AF-Lx and AF-Mal were quenched by incubation the compounds with 1 mol equiv. thiourea (2 hours, 37° C.) and n-acetyl-cysteine (30 minutes, 0° C.), respectively. The cells were trypsinized and plated in 96-well, flat-bottomed, tissue culture plates at day 0. On day 1, from the above mentioned compounds serial dilution series (9×4-fold dilutions) were made starting from 10 or 1000 nM (depending on type of cells and compounds) and added to the cells (in case of ADCs, concentration of the mAb was used). On day 5, the […] BLUE® reagent was added and incubated for 2 hours at 37° C., and viable cells were measured with a TeCan plate reader (Tecan Group Ltd.) at 560EX/590EM nm. Fluorescence values of the samples were corrected for background of cell culture medium, the results, presented as the percentage of survival, were calculated by dividing the fluorescence values of the treated cells by the values of the untreated control cells. The data were analyzed with Graphpad Prism 5 software.

SK-BR-3 = assay: In vitro cell viability assay ([…] BLUE); format: cell-based
Experimental: as §1, with “BLUE® Assay (Promega). Before” for “Before”, “Fluorescence values of the samples were corrected for background of cell culture medium, the results, presented as the percentage of survival, were calculated by dividing the fluorescence values of the treated cells by the values of the untreated control cells.” left out

NCI-N87 = assay: In vitro cell viability assay ([…] BLUE); format: cell-based; conditions: concentration of the mAb for ADCs, day 5 readout
Experimental: as §1, with “BLUE® Assay (Promega). Before” for “Before”, “Fluorescence values of the samples were corrected for background of cell culture medium, the results, presented as the percentage of survival, were calculated by dividing the fluorescence values of the treated cells by the values of the untreated control cells.” left out

JIMT-1 = assay: In vitro cell viability assay ([…] BLUE); format: cell-based
Experimental: as §1, with “BLUE® Assay (Promega). Before” for “Before”, “Fluorescence values of the samples were corrected for background of cell culture medium, the results, presented as the percentage of survival, were calculated by dividing the fluorescence values of the treated cells by the values of the untreated control cells.” left out

SKOV-3 = assay: In vitro cell viability assay ([…] BLUE); format: cell-based
Experimental: as §1, with “BLUE® Assay (Promega). Before” for “Before”, “Fluorescence values of the samples were corrected for background of cell culture medium, the results, presented as the percentage of survival, were calculated by dividing the fluorescence values of the treated cells by the values of the untreated control cells.” left out

MDA-MB-231 = assay: In vitro cell viability assay ([…] BLUE); format: cell-based
Experimental: as §1, with “BLUE® Assay (Promega). Before” for “Before”, “Fluorescence values of the samples were corrected for background of cell culture medium, the results, presented as the percentage of survival, were calculated by dividing the fluorescence values of the treated cells by the values of the untreated control cells.” left out

JIMT-1 tumors = assay: In vivo therapy study, JIMT-1 xenografts; design: species or system nude mice; conditions: single bolus injection (15 mg/kg; AF conjugates 15 and 30 mg/kg), follow-up to day 125
Experimental: (§2) Body weight was measured three times per week and MTD was reached when weight loss was >10% compared with the control mice. […] For this purpose, seven groups of 8 or 9 mice with established NCI-N87 or JIMT-1 xenografts in both flanks were used. […] All mice received an i.p. bolus injection. In the study with the NCI-N87 tumors, Group 1 was the control group and received 100 μL of saline solution. […] In the study with the JIMT-1 tumors, Group 1 was the control group and received 100 μL of saline solution. […] Body weight and tumor volume were measured three times per week up to 4 months after end of treatment.

NCI-N87 tumors = assay: In vivo therapy study, NCI-N87 xenografts; design: species or system nude mice; conditions: single bolus injection 15 mg/kg
Experimental: as §2

Compound	potency of drug-linker lower compared to its corresponding ADC (all tested cell lines)	IC50 (SK-BR-3)	IC50 (NCI-N87)	IC50 (JIMT-1; JIMT-1, T-DM1-resistant)	potency / IC50 in JIMT-1 cell line, in words (JIMT-1; T-DM1-resistant JIMT-1)	IC50 (SKOV-3)	potency / IC50 in MDA-MB-231, in words (MDA-MB-231; HER2-negative MDA-MB-231)	IC50 (MDA-MB-231; MDA-MB-231, HER2-negative)	tumor growth response, in words (JIMT-1 tumors)	time at which tumors started regrowth (NCI-N87 tumors)
CC[C@H](C)[C@@H]([C@@H](CC(=O)N1CCC[C@H]1[C@H](OC)[C@@H](C)C(=O)N[C@H](Cc1ccccc1)C(=O)NCCOCCOCCNC(=O)CCCCCN1C(=O)C=CC1=O)OC)N(C)C(=O)[C@@H](NC(=O)[C@H](C(C)C)N(C)C)C(C)C [AF-Mal, AF-PEG1-amide-Hex-Mal] (NMe2Val-V[Dil][Dolaproine][dF]-X1)	10 fold	–	–	–	–	–	–	–	–	–
[Pt(en)(AF-(4-(12-amino-3-oxo-7,10-dioxa-2,4-diazadodecyl)piperidine))Cl](Cl) [AF-Lx]	10^3-10^4 fold	–	–	–	–	–	–	–	–	–
ado-trastuzumab emtansine [T-DM1]	–	0.021 nM	0.105 nM	7 nM	an order of magnitude higher	0.013 nM	lower IC50	200 nM	minimal growth delay	20 days
